Test results from patent publication US12011469B2, “Parenteral delivery device and methods of use” (Vireo Systems, Inc., priority 2017, dated 2024).

What was measured:
Lactobacilli = settings: 60 mg hydrogen borate in well, LB-agar, overnight; Lactobacilli added one hour or 12 hours after hydrogen borate
Protocol: Lactobacillus capsular material (40 mg) was suspended in 1.0 milliliter of LB-broth and 25 microliters was spread on the surface of half of an LB-agar plate. For comparison, the other half of the plate spread with C. albicans. A hole was punched in the middle of the plate and 60 mg of hydrogen borate was added. The plates were incubated overnight and scored for growth and/or a zone of inhibition around the hydrogen borate well.
In some cases, only about a quarter of the LB-agar plate was spread with the L-capsular suspension in which case only 10 microliters was used.

[1] = test system: co-cultures of C. albicans and Lactobacilli; settings: Lactobacilli added dropwise immediately after C. albicans was spread onto the plate
Excerpt: In some cases, the C. albicans was co-cultured with the Lactobacilli. For this inoculum, equal volumes of the two suspensions of organisms described earlier were mixed and used to spread on LB-agar plates for testing for any effect of the co-culture on the anti-yeast activity of hydrogen borate or any effect on Lactobacillus growth.

[2] = test system: Candida albicans, ATTC number 10231; experiment: microbe, parasite or virus in culture; settings: read-out: zone of inhibition against the yeast, Candida albicans
Protocol: Candida albicans, ATTC number 10231, was used as a test organism. Cultures of C. albicans were grown in a rotator overnight at room temperature in tubes of LB-broth. The cultures contained approximately 1×10^8 organisms per mL. The suspension was diluted 1:1000 in LB-broth and 50 microliters were spread on the surface of a LB-agar plate, i.e., approximately 5,000 organisms.

SMILES: OB(O)O [hydrogen borate]
- effect on the growth of Lactobacilli (Lactobacilli): did not have an effect
- effect of co-culture on the anti-yeast activity of hydrogen borate [1]: did not affect the activity
- zone of inhibition at 60000 µg/disc [2]: 45 mm
